Measured values from patent US8063048B2, “Acetylenyl-pyrazolo-pyrimidine derivatives” (Hoffmann-La Roche Inc., priority 2005, dated 2011).

melting point | Compound
255 °C | N#Cc1cc(C#Cc2cnn3c(C(F)F)cc(-c4ccc(C(F)(F)F)cc4)nc23)cnc1N [Example 218, 2-Amino-5-[7-difluoromethyl-5-(4-trifluoromethyl-phenyl)-pyrazolo[1,5-a]pyrimidin-3-ylethynyl]-nicotinonitrile]
213 to 214 °C | CNS(=O)(=O)c1cccc(C#Cc2cnn3c(C(F)(F)F)cc(-c4ccc(C(F)(F)F)cc4)nc23)c1 [Example 130, N-Methyl-3-[7-trifluoromethyl-5-(4-trifluoromethyl-phenyl)-pyrazolo[1,5-a]pyrimidin-3-ylethynyl]-benzenesulfonamide]
231 to 233 °C | NS(=O)(=O)c1ccc(C#Cc2cnn3c(C4CC4)cc(-c4ccc(C(F)(F)F)cc4)nc23)s1 [Example 83, 5-[7-Cyclopropyl-5-(4-trifluoromethyl-phenyl)-pyrazolo[1,5-a]pyrimidin-3-ylethynyl]-thiophene-2-sulfonic acid amide]
209 to 211 °C | CCOc1cc(-c2cc(C(F)(F)F)n3ncc(C#Cc4ncc(S(=O)(=O)NC(C)(C)CO)s4)c3n2)ccc1C(F)(F)F [Example 51, 2-[5-(3-Ethoxy-4-trifluoromethyl-phenyl)-7-trifluoromethyl-pyrazolo[1,5-a]pyrimidin-3-ylethynyl]-thiazole-5-sulfonic acid (2-hydroxy-1,1-dimethyl-ethyl)-amide]
209 °C | Nc1ncc(C#Cc2cnn3c(C(F)(F)F)cc(-c4ccc(Cl)cc4)nc23)cc1C(F)(F)F [Example 223, 5-[5-(4-Chloro-phenyl)-7-trifluoromethyl-pyrazolo[1,5-a]pyrimidin-3-ylethynyl]-3-trifluoromethyl-pyridin-2-ylamine]
231 to 232 °C | NS(=O)(=O)c1ccc(C#Cc2cnn3c(C(F)(F)F)cc(-c4ccc(Cl)c(Cl)c4)nc23)s1 [Example 89, 5-[5-(3,4-Dichloro-phenyl)-7-trifluoromethyl-pyrazolo[1,5-a]pyrimidin-3-ylethynyl]-thiophene-2-sulfonic acid amide]
231 to 233 °C | CNS(=O)(=O)c1ccc(C#Cc2cnn3c(C(F)(F)F)cc(-c4ccc(C(F)(F)F)cc4)nc23)cc1 [Example 123, N-Methyl-4-[7-trifluoromethyl-5-(4-trifluoromethyl-phenyl)-pyrazolo[1,5-a]pyrimidin-3-ylethynyl]-benzenesulfonamide]
169 to 170 °C | FC(F)(F)c1ccc(-c2cc(C(F)(F)F)c3ncc(C#Cc4cccnc4)n3c2)cc1 [Example 190, 3-Pyridin-3-ylethynyl-8-trifluoromethyl-6-(4-trifluoromethyl-phenyl)-imidazo[1,2-a]pyridine]
253 to 254 °C | CC(=O)N(C(C)=O)c1ncc(C#Cc2cnn3c(C(F)(F)F)cc(-c4ccc(C(F)(F)F)cc4)nc23)cn1 [Example 244, N-Acetyl-N-{5-[7-trifluoromethyl-5-(4-trifluoromethyl-phenyl)-pyrazolo[1,5-a]pyrimidin-3-ylethynyl]-pyrimidin-2-yl}-acetamide]
204 to 206 °C | CC(CO)(CO)NS(=O)(=O)c1cncc(C#Cc2cnn3c(C4CC4)cc(-c4ccc(Cl)cc4)nc23)c1 [Example 68, 5-[5-(4-Chloro-phenyl)-7-cyclopropyl-pyrazolo[1,5-a]pyrimidin-3-ylethynyl]-pyridine-3-sulfonic acid (2-hydroxy-1-hydroxymethyl-1-methyl-ethyl)-amide]
292 to 293 °C | NS(=O)(=O)c1cc(C#Cc2cnn3c(C(F)(F)F)cc(-c4ccc(Cl)cc4)nc23)c(F)cc1F [Example 96, 5-[5-(4-Chloro-phenyl)-7-trifluoromethyl-pyrazolo[1,5-a]pyrimidin-3-ylethynyl]-2,4-difluoro-benzenesulfonamide]
213 °C | O=S(=O)(NCCO)c1cccc(C#Cc2cnn3c(C(F)(F)F)cc(-c4ccc(C(F)(F)F)cc4)nc23)c1 [Example 132, N-(2-Hydroxy-ethyl)-3-[7-trifluoromethyl-5-(4-trifluoromethyl-phenyl)-pyrazolo[1,5-a]pyrimidin-3-ylethynyl]-benzenesulfonamide]
286 °C | Nc1ncc(C#Cc2cnc3c(F)cc(-c4ccc(C(F)(F)F)cc4)cn23)cn1 [Example 240, 5-[8-Fluoro-6-(4-trifluoromethyl-phenyl)-imidazo[1,2-a]pyridin-3-ylethynyl]-pyrimidin-2-ylamine]
161 to 162 °C | CC(C)(CO)NS(=O)(=O)c1cccc(C#Cc2cnn3c(C(F)F)cc(-c4ccc(C(F)(F)F)cc4)nc23)c1 [Example 32, 3-[7-Difluoromethyl-5-(4-trifluoromethyl-phenyl)-pyrazolo[1,5-a]pyrimidin-3-ylethynyl]-N-(2-hydroxy-1,1-dimethyl-ethyl)-benzenesulfonamide]
242 to 243 °C | Nc1ncc(C#Cc2cnn3c(C(F)F)cc(-c4ccc(C(F)(F)F)cc4)nc23)cn1 [Example 213, 5-[7-Difluoromethyl-5-(4-trifluoromethyl-phenyl)-pyrazolo[1,5-a]pyrimidin-3-ylethynyl]-pyrimidin-2-ylamine]
282 °C | NS(=O)(=O)c1ccc(C#Cc2ncn3c(C(F)F)cc(-c4ccc(C(F)(F)F)cc4)nc23)cc1 [Example 276, 4-[4-Difluoromethyl-2-(4-trifluoromethyl-phenyl)-imidazo[1,5-a]pyrimidin-8-ylethynyl]-benzenesulfonamide]

melting point | Compound
112 to 115 °C | Cc1cc(-c2ccc(Cl)cc2)nc2c(C#Cc3ccc(C(C)(C)O)cc3)cnn12 [Example 301, 2-{4-[5-(4-Chloro-phenyl)-7-methyl-pyrazolo[1,5-a]pyrimidin-3-ylethynyl]-phenyl}-propan-2-ol]
168 °C | CC(C)(C)NS(=O)(=O)c1ccc(C#Cc2cnn3c(C(F)(F)F)cc(-c4cccc(C(F)(F)F)c4)nc23)s1 [Example 117, 5-[7-Trifluoromethyl-5-(3-trifluoromethyl-phenyl)-pyrazolo[1,5-a]pyrimidin-3-ylethynyl]-thiophene-2-sulfonic acid tert-butylamide]
214 to 215 °C | Cc1cc(-c2ccc(C(F)(F)F)cc2)nc2c(C#Cc3ccc(S(N)(=O)=O)s3)cnn12 [Example 152, 5-[7-Methyl-5-(4-trifluoromethyl-phenyl)-pyrazolo[1,5-a]pyrimidin-3-ylethynyl]-thiophene-2-sulfonic acid amide]
239 to 240 °C | NS(=O)(=O)c1cncc(C#Cc2cnn3c(C(F)(F)F)cc(-c4ccc(C(F)(F)F)cc4)nc23)c1 [Example 5, 5-[7-Trifluoromethyl-5-(4-trifluoromethyl-phenyl)-pyrazolo[1,5-a]pyrimidin-3-ylethynyl]-pyridine-3-sulfonic acid amide]
129 °C | O=S(=O)(c1ccc(C#Cc2cnn3c(C(F)(F)F)cc(-c4cccc(C(F)(F)F)c4)nc23)s1)N(CCO)CCO [Example 266, 5-[7-Trifluoromethyl-5-(3-trifluoromethyl-phenyl)-pyrazolo[1,5-a]pyrimidin-3-ylethynyl]-thiophene-2-sulfonic acid bis-(2-hydroxy-ethyl)-amide]
272 to 275 °C | NS(=O)(=O)c1cc(C#Cc2cnn3c(C4CC4)cc(-c4ccc(Cl)cc4)nc23)c(F)cc1F [Example 70, 5-[5-(4-Chloro-phenyl)-7-cyclopropyl-pyrazolo[1,5-a]pyrimidin-3-ylethynyl]-2,4-difluoro-benzenesulfonamide]
246 to 247 °C | NS(=O)(=O)c1cccc(C#Cc2cnn3c(C(F)F)cc(-c4ccc(C(F)(F)F)cc4)nc23)c1 [Example 42, 3-[7-Difluoromethyl-5-(4-trifluoromethyl-phenyl)-pyrazolo[1,5-a]pyrimidin-3-ylethynyl]-benzenesulfonamide]
230 to 231 °C | NS(=O)(=O)c1cccc(C#Cc2cnn3c(C(F)(F)F)cc(-c4ccc(Cl)c(Cl)c4)nc23)c1 [Example 93, 3-[5-(3,4-Dichloro-phenyl)-7-trifluoromethyl-pyrazolo[1,5-a]pyrimidin-3-ylethynyl]-benzenesulfonamide]
267 to 269 °C | N#Cc1cc(-c2ccc(C(F)(F)F)cc2)cn2c(C#Cc3ccc(S(N)(=O)=O)s3)cnc12 [Example 214, 5-[8-Cyano-6-(4-trifluoromethyl-phenyl)-imidazo[1,2-a]pyridin-3-ylethynyl]-thiophene-2-sulfonic acid amide]
220 to 221 °C | Nc1ncc(C#Cc2cnc3c(C(F)(F)F)cc(-c4ccc(C(F)(F)F)cc4)nn23)cn1 [Example 243, 5-[8-Trifluoromethyl-6-(4-trifluoromethyl-phenyl)-imidazo[1,2-b]pyridazin-3-ylethynyl]-pyrimidin-2-ylamine]
230 to 232 °C | NS(=O)(=O)c1ccc(C#Cc2cnn3c(C(F)F)cc(-c4ccc(C(F)(F)F)cc4)nc23)c(F)c1 [Example 48, 4-[7-Difluoromethyl-5-(4-trifluoromethyl-phenyl)-pyrazolo[1,5-a]pyrimidin-3-ylethynyl]-3-fluoro-benzenesulfonamide]
248 to 249 °C | NS(=O)(=O)c1cncc(C#Cc2cnn3ccc(-c4ccc(Cl)cc4)nc23)c1 [Example 73, 5-[5-(4-Chloro-phenyl)-pyrazolo[1,5-a]pyrimidin-3-ylethynyl]-pyridine-3-sulfonic acid amide]
265 to 266 °C | Cc1cc(-c2ccc(Cl)cc2)cn2c(C#Cc3ccc(S(N)(=O)=O)s3)cnc12 [Example 211, 5-[6-(4-Chloro-phenyl)-8-methyl-imidazo[1,2-a]pyridin-3-ylethynyl]-thiophene-2-sulfonic acid amide]
244 to 246 °C | Cc1cc(-c2ccc(Cl)cc2)nc2c(C#Cc3ccc(N)nc3)cnn12 [Example 295, 5-[5-(4-Chloro-phenyl)-7-methyl-pyrazolo[1,5-a]pyrimidin-3-ylethynyl]-pyridin-2-ylamine]
199 °C | FC(F)(F)c1ccc(-c2cc(C(F)(F)F)n3cnc(C#Cc4cccnc4)c3n2)cc1 [Example 268, 8-Pyridin-3-ylethynyl-4-trifluoromethyl-2-(4-trifluoromethyl-phenyl)-imidazo[1,5-a]pyrimidine]
